Measurements reported in patent publication US9902736B2, “1-oxo/acylation-14-acylated oridonin derivative, preparation method therefor and application thereof” (HANGZHOU BENSHENG PHARMACEUTICAL CO., LTD., priority 2012, dated 2018).
≈ marks a conversion by molar mass, not a printed value.

Tests used:
[1] = system: Kasumi-1; experiment: Leukemia cell growth inhibition, MTT, 72 h; assay type: cell-based; conditions: Homo sapiens
From the text: (§1) Leukemia cell lines: leukemia cell lines: K562/adr (drug-resistant, chronic myeloid leukemia, CML), NB4 (acute promyelocytic leukemia, AML), Kasumi-1 (acute myeloid leukemia M2 type, AML-M2), Jurkat (acute lymphoblastic leukemia, ALL), all of which were donated by Cancer Research Institute of Zhejiang University, China; and H9 (acute lymphoblastic leukemia, ALL), which was purchased from China Center for Type Culture Collection.
(§2) 6000 well-growing leukemia cells were obtained and inoculated into wells of a 96-well cell culture plate. […] On the next day, the 1-oxo/acylated-14-acylated oridonin derivatives of different concentrations were added and mixed uniformly. The plate was placed in a carbon dioxide cell incubator (5% CO2) at 37° C. and was incubated for 72 hours. Then the viable cell concentration was determined by MTT method.

[2] = system: K562/ADR; experiment: Leukemia cell growth inhibition, MTT, 72 h; assay type: cell-based; conditions: Homo sapiens
From the text: as §1, §2

[3] = system: RPMI 8226; experiment: Multiple myeloma cell growth inhibition, MTT, 72 h; assay type: cell-based; conditions: Homo sapiens
Method: Multiple myeloma cell lines: RPMI8226 (multiple myeloma), purchased from Fuxiang Bio-tech Co. Ltd., Shanghai, China.
6000 well-growing cells were obtained and inoculated into wells of a 96-well cell culture plate. […] On the next day, the 1-oxo/acylated-14-acylated oridonin derivatives of different concentrations were added and mixed uniformly. The plate was placed in a carbon dioxide cell incubator (5% CO2) at 37° C. and incubated for 72 hours. Then the viable cell concentration was determined by MTT method.

[4] = system: A549; experiment: Solid tumor cell growth inhibition, MTT, 72 h; assay type: cell-based; conditions: Homo sapiens
Method: (§3) 6000 well-growing human solid tumor cells were obtained and inoculated into wells of a 96-well cell culture plate. The culture medium was DMEM High Glucose cell culture medium containing 10% fetal bovine serum. The plate was placed in a carbon dioxide cell incubator (5% CO2) at 37° C. and incubated for 24 hours. After added with 1-oxo/acylated-14-acylated oridonin derivatives of different concentration and mixed uniformly, the plate was placed in a carbon dioxide cell incubator (5% CO2) at 37° C. and incubated for 72 hours. Then the viable cell concentration was determined by MTT method.

[5] = system: PANC-1; experiment: Solid tumor cell growth inhibition, MTT, 72 h; assay type: cell-based; conditions: Homo sapiens
Method: as §3

[6] = system: PC-3; experiment: Solid tumor cell growth inhibition, MTT, 72 h; assay type: cell-based; conditions: Homo sapiens
Method: as §3

[7] = system: RKO; experiment: Solid tumor cell growth inhibition, MTT, 72 h; assay type: cell-based; conditions: Homo sapiens
Method: as §3

[8] = system: U87-MG; experiment: Solid tumor cell growth inhibition, MTT, 72 h; assay type: cell-based; conditions: Homo sapiens, U-87 MG
Method: as §3

[9] = system: CaEs-17; experiment: Solid tumor cell growth inhibition, MTT, 72 h; assay type: cell-based; conditions: Homo sapiens, CaEs17
Method: as §3

[10] = system: MG-63; experiment: Solid tumor cell growth inhibition, MTT, 72 h; assay type: cell-based; conditions: Homo sapiens
Method: as §3

[11] = system: SK-OV-3; experiment: Solid tumor cell growth inhibition, MTT, 72 h; assay type: cell-based; conditions: Homo sapiens, SK-OV-3, 72 h, MTT; for IC50: read-out: IC50 SK-OV-3; for IC90: read-out: IC90 SK-OV-3
Method: as §3

[12] = system: Becap-37; experiment: Solid tumor cell growth inhibition, MTT, 72 h; assay type: cell-based; conditions: Homo sapiens
Method: as §3

[13] = system: Hep G2; experiment: Solid tumor cell growth inhibition, MTT, 72 h; assay type: cell-based; conditions: Homo sapiens, HepG2
Method: as §3

[14] = system: Jurkat; experiment: Leukemia cell growth inhibition, MTT, 72 h; assay type: cell-based, human; conditions: Homo sapiens, Jurkat; 72 h, MTT
From the text: as §1, §2

[15] = system: NB4; experiment: Leukemia cell growth inhibition, MTT, 72 h; assay type: cell-based, human; conditions: Homo sapiens, NB-4; 72 h, MTT
From the text: as §1, §2

[16] = system: H9; experiment: Leukemia cell growth inhibition, MTT, 72 h; assay type: cell-based, human; conditions: Homo sapiens, H9; 72 h, MTT
From the text: as §1, §2

[17] = system: MGC-803; experiment: Solid tumor cell growth inhibition, MTT, 72 h; assay type: cell-based, human; conditions: Homo sapiens, MGC-803; 72 h, MTT
Method: as §3

[18] = system: CNE; experiment: Solid tumor cell growth inhibition, MTT, 72 h; assay type: cell-based, human; conditions: Homo sapiens, CNE; 72 h, MTT
Method: as §3

[19] = system: Hela; experiment: Solid tumor cell growth inhibition, MTT, 72 h; assay type: cell-based, human; conditions: Homo sapiens, HeLa; 72 h, MTT
Method: as §3

[20] = system: Hep-2; experiment: Solid tumor cell growth inhibition, MTT, 72 h; assay type: cell-based, human; conditions: Homo sapiens, HEp-2; 72 h, MTT
Method: as §3

C=C1C(=O)[C@]23[C@H](OC(=O)c4ccc(OC)c(OC)c4)[C@H]1CC[C@H]2[C@@]12CO[C@@]3(O)[C@@H](O)[C@@H]1C(C)(C)CCC2=O [BS-OR-015]
IC50 [1]: 0.51 µg/mL (≈ 0.969 µM) | IC90 [1]: 1.15 µg/mL (≈ 2.18 µM) | IC50 [2]: 0.51 µg/mL (≈ 0.969 µM) | IC90 [2]: 1.97 µg/mL (≈ 3.74 µM) | IC50 [3]: 0.3 µg/mL (≈ 0.57 µM) | IC90 [3]: 1.85 µg/mL (≈ 3.51 µM) | IC50 [4]: 2.38 µg/mL (≈ 4.52 µM) | IC90 [4]: 5.33 µg/mL (≈ 10.1 µM) | IC50 [5]: 1.88 µg/mL (≈ 3.57 µM) | IC90 [5]: 9.81 µg/mL (≈ 18.6 µM) | IC50 [6]: 1.66 µg/mL (≈ 3.15 µM) | IC90 [6]: 3.04 µg/mL (≈ 5.77 µM) | IC50 [7]: 0.42 µg/mL (≈ 0.798 µM) | IC90 [7]: 0.94 µg/mL (≈ 1.79 µM) | IC50 [8]: 0.87 µg/mL (≈ 1.65 µM) | IC90 [8]: 2.41 µg/mL (≈ 4.58 µM) | IC50 [9]: 0.95 µg/mL (≈ 1.8 µM) | IC90 [9]: 3.05 µg/mL (≈ 5.79 µM) | IC50 [10]: 0.4 µg/mL (≈ 0.76 µM) | IC90 [10]: 0.96 µg/mL (≈ 1.82 µM) | IC50 [11]: 1.66 µg/mL (≈ 3.15 µM) | IC90 [11]: 3.04 µg/mL (≈ 5.77 µM) | IC50 [12]: 0.99 µg/mL (≈ 1.88 µM) | IC90 [12]: 3.17 µg/mL (≈ 6.02 µM) | IC50 [13]: 0.94 µg/mL (≈ 1.79 µM) | IC90 [13]: 5.47 µg/mL (≈ 10.4 µM) | IC50 [14]: 0.69 µg/mL (≈ 1.31 µM) | IC90 [14]: 2.31 µg/mL (≈ 4.39 µM) | IC50 [15]: 0.11 µg/mL (≈ 0.209 µM) | IC90 [15]: 0.43 µg/mL (≈ 0.817 µM) | IC50 [16]: 0.45 µg/mL (≈ 0.855 µM) | IC90 [16]: 1.82 µg/mL (≈ 3.46 µM) | IC50 [17]: 0.84 µg/mL (≈ 1.6 µM) | IC90 [17]: 4.68 µg/mL (≈ 8.89 µM) | IC50 [18]: 1.05 µg/mL (≈ 1.99 µM) | IC90 [18]: 4.05 µg/mL (≈ 7.69 µM) | IC50 [19]: 1.53 µg/mL (≈ 2.91 µM) | IC90 [19]: 3.75 µg/mL (≈ 7.12 µM) | IC50 [20]: 1.12 µg/mL (≈ 2.13 µM) | IC90 [20]: 5.05 µg/mL (≈ 9.59 µM)

C=C1C(=O)[C@]23[C@H](OC(=O)c4cccnc4)[C@H]1CC[C@H]2[C@@]12CO[C@@]3(O)[C@@H](O)[C@@H]1C(C)(C)CCC2=O [BS-OR-011]
IC50 [1]: 1.03 µg/mL (≈ 2.2 µM) | IC90 [1]: 1.94 µg/mL (≈ 4.15 µM) | IC50 [2]: 0.75 µg/mL (≈ 1.6 µM) | IC90 [2]: 2.35 µg/mL (≈ 5.03 µM) | IC50 [3]: 0.9 µg/mL (≈ 1.93 µM) | IC90 [3]: 1.93 µg/mL (≈ 4.13 µM) | IC50 [4]: 5.58 µg/mL (≈ 11.9 µM) | IC90 [4]: 9.47 µg/mL (≈ 20.3 µM) | IC50 [5]: 2.99 µg/mL (≈ 6.4 µM) | IC90 [5]: 7.92 µg/mL (≈ 16.9 µM) | IC50 [6]: 2.53 µg/mL (≈ 5.41 µM) | IC90 [6]: 4.87 µg/mL (≈ 10.4 µM) | IC50 [7]: 0.59 µg/mL (≈ 1.26 µM) | IC90 [7]: 1.44 µg/mL (≈ 3.08 µM) | IC50 [8]: 1.17 µg/mL (≈ 2.5 µM) | IC90 [8]: 3.29 µg/mL (≈ 7.04 µM) | IC50 [9]: 1.41 µg/mL (≈ 3.02 µM) | IC90 [9]: 5.24 µg/mL (≈ 11.2 µM) | IC50 [10]: 0.74 µg/mL (≈ 1.58 µM) | IC90 [10]: 3.01 µg/mL (≈ 6.44 µM) | IC50 [11]: 2.53 µg/mL (≈ 5.41 µM) | IC90 [11]: 4.87 µg/mL (≈ 10.4 µM) | IC50 [12]: 1.96 µg/mL (≈ 4.19 µM) | IC90 [12]: 6.11 µg/mL (≈ 13.1 µM) | IC50 [13]: 2.53 µg/mL (≈ 5.41 µM) | IC90 [13]: 12.6 µg/mL (≈ 27 µM) | IC50 [14]: 0.87 µg/mL (≈ 1.86 µM) | IC90 [14]: 5.24 µg/mL (≈ 11.2 µM) | IC50 [15]: 0.27 µg/mL (≈ 0.578 µM) | IC90 [15]: 0.9 µg/mL (≈ 1.93 µM) | IC50 [16]: 0.56 µg/mL (≈ 1.2 µM) | IC90 [16]: 1.23 µg/mL (≈ 2.63 µM) | IC50 [17]: 1.6 µg/mL (≈ 3.42 µM) | IC90 [17]: 11.9 µg/mL (≈ 25.5 µM) | IC50 [18]: 2.26 µg/mL (≈ 4.83 µM) | IC90 [18]: 8.1 µg/mL (≈ 17.3 µM) | IC50 [19]: 2.53 µg/mL (≈ 5.41 µM) | IC90 [19]: 6.79 µg/mL (≈ 14.5 µM) | IC50 [20]: 3.8 µg/mL (≈ 8.13 µM) | IC90 [20]: 14.1 µg/mL (≈ 30.1 µM)
